In ChEMBL document CHEMBL3991601, “The target landscape of clinical kinase drugs” (Science, 2017):
Activity calls are given as the source filed them.

Columns and labels:
Actin-related protein 2 = Actin-related protein 2 (Homo sapiens, UniProt P61160)
[1] = target: Mitotic checkpoint serine/threonine-protein kinase BUB1 (Homo sapiens, UniProt O43683)
[2] = target: T1, Cysteine--tRNA ligase, cytoplasmic (Homo sapiens, UniProt P49589)
T1 sequence (P49589 whole entry): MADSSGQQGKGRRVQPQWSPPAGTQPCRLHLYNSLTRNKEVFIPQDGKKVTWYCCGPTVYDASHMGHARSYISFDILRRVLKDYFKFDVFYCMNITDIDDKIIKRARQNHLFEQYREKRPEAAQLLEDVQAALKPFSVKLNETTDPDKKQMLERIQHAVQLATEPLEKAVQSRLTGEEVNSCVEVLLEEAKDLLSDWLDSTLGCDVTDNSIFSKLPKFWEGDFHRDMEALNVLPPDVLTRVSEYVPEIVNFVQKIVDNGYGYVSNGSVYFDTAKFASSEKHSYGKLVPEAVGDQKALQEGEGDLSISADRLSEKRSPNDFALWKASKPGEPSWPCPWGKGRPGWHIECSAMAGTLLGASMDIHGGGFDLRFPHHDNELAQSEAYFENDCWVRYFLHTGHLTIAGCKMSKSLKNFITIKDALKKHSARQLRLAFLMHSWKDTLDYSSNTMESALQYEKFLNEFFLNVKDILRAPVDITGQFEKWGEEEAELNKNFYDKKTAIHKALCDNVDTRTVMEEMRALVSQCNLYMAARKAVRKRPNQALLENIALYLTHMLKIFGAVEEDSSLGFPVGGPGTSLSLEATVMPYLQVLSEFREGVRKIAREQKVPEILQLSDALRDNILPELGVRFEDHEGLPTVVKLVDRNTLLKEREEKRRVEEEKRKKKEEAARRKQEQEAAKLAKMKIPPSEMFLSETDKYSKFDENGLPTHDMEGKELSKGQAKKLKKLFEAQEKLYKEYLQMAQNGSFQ

[3] = target: Cyclin-dependent kinase 1 (Homo sapiens, UniProt P06493)
[4] = target: Cyclin-dependent kinase 7 (Homo sapiens, UniProt P50613)
Ephrin type-B receptor 6 = target: T2, Ephrin type-B receptor 6 (Homo sapiens, UniProt O15197)
T2 sequence (O15197 whole entry): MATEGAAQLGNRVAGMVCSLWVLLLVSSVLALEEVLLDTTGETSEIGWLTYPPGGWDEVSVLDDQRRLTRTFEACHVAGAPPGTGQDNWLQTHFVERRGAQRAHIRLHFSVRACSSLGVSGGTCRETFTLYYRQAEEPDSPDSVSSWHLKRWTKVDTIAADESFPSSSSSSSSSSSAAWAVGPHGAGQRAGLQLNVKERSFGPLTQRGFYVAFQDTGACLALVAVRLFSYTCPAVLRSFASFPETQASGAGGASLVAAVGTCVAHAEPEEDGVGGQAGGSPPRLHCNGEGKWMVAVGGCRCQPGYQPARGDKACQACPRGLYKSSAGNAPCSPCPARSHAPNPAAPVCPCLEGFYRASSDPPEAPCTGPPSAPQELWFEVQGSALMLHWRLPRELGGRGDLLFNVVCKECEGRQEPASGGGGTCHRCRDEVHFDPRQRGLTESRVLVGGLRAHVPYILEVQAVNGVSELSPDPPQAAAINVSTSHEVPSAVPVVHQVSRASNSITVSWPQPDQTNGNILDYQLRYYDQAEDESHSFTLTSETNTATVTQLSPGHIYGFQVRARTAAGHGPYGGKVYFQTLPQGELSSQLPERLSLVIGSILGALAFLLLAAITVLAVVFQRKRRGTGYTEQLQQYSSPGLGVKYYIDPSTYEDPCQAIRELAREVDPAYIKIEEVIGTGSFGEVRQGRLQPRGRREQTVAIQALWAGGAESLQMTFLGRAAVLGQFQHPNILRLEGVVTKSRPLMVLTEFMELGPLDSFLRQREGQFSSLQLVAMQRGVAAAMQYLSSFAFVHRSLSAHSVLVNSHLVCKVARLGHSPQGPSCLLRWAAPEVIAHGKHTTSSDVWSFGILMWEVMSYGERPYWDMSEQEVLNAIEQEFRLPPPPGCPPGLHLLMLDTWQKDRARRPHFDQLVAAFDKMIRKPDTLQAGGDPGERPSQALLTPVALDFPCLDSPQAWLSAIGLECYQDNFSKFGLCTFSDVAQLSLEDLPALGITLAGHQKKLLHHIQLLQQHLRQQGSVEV

[5] = target: Glycogen synthase kinase-3 alpha (Homo sapiens, UniProt P49840)
[6] = target: T3, Ras-related protein Rab-27A (Homo sapiens, UniProt P51159)
T3 sequence (P51159 whole entry): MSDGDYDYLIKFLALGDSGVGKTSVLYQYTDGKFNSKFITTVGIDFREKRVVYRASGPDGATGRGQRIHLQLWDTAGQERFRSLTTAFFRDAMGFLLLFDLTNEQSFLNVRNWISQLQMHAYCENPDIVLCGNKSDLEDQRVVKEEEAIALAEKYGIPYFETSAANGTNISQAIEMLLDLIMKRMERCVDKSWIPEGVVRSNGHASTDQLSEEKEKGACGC

[7] = target: T4, Signal recognition particle receptor subunit alpha (Homo sapiens, UniProt P08240)
T4 sequence (P08240 whole entry): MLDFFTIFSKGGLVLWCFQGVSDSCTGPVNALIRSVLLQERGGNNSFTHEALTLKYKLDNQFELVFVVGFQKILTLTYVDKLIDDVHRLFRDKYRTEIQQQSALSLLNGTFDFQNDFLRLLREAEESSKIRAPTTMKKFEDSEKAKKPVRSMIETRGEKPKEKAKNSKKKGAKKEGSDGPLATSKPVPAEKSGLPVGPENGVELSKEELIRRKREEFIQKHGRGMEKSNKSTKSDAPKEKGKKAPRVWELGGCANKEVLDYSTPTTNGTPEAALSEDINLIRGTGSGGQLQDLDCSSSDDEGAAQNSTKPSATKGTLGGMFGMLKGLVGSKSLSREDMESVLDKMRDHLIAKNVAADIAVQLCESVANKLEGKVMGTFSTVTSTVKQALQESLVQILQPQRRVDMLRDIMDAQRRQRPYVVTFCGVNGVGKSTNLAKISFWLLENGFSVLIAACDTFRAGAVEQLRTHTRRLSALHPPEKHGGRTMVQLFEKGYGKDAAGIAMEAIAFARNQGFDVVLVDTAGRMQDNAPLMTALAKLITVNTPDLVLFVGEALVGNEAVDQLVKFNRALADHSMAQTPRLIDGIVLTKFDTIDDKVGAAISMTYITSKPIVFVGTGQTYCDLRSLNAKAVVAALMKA

[8] = target: Non-receptor tyrosine-protein kinase TYK2 (Homo sapiens, UniProt P29597)

Measured: Kd
Further: in the data inactive means no Kd found up to 30 µM.

Cyclin-dependent kinase 7, sequence (P50613 whole entry): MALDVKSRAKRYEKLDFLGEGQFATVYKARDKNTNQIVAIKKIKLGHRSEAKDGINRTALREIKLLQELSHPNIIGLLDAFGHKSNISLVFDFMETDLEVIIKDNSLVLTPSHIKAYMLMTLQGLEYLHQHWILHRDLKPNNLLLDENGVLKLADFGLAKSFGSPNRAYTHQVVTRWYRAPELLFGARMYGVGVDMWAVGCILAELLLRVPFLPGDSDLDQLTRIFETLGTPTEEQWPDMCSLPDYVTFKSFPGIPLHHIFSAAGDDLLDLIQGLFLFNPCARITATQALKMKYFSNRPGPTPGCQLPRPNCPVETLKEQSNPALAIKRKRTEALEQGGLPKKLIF
Mitotic checkpoint serine/threonine-protein kinase BUB1, sequence (O43683 whole entry): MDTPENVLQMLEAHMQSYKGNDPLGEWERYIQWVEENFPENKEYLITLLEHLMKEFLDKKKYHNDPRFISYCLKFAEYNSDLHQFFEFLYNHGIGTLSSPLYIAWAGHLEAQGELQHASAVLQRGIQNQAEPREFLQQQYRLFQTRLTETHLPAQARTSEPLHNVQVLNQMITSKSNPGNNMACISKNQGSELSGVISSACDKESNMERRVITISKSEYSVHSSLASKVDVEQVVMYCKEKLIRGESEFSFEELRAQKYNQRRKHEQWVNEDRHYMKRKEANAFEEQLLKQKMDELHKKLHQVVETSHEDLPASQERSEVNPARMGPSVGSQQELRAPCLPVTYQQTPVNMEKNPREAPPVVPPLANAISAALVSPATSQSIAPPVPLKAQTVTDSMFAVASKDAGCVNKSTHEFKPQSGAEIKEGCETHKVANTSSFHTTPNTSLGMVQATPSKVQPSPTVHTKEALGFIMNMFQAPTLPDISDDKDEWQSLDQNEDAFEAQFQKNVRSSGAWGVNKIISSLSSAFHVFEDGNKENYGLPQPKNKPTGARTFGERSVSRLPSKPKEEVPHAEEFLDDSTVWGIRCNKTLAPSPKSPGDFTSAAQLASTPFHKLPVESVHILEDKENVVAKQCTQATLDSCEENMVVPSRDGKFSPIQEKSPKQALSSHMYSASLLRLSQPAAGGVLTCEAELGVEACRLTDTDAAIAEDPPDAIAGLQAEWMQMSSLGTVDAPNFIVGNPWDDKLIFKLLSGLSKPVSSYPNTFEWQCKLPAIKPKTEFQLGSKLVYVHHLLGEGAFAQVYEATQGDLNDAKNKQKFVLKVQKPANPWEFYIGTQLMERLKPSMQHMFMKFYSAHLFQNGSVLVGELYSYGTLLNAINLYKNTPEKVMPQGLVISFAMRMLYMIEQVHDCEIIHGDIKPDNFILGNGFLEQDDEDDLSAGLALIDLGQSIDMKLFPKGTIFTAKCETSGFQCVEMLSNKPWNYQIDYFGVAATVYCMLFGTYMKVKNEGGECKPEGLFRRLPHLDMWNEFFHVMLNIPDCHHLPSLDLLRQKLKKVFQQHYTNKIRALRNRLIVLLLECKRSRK
Glycogen synthase kinase-3 alpha, sequence (P49840 whole entry): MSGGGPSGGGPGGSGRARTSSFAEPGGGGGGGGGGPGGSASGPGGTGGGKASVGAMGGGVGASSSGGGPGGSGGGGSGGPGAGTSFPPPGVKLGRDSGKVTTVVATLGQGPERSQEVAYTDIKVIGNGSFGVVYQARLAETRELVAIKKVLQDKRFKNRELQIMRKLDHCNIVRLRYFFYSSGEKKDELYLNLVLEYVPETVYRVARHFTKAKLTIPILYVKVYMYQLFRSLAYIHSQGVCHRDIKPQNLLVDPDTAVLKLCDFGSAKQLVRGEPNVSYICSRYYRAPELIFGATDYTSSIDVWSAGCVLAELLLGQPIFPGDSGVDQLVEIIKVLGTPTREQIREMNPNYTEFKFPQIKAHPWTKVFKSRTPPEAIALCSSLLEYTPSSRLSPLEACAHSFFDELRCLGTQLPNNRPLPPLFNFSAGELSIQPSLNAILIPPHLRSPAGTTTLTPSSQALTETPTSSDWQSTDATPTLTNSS
Non-receptor tyrosine-protein kinase TYK2, sequence (P29597 whole entry): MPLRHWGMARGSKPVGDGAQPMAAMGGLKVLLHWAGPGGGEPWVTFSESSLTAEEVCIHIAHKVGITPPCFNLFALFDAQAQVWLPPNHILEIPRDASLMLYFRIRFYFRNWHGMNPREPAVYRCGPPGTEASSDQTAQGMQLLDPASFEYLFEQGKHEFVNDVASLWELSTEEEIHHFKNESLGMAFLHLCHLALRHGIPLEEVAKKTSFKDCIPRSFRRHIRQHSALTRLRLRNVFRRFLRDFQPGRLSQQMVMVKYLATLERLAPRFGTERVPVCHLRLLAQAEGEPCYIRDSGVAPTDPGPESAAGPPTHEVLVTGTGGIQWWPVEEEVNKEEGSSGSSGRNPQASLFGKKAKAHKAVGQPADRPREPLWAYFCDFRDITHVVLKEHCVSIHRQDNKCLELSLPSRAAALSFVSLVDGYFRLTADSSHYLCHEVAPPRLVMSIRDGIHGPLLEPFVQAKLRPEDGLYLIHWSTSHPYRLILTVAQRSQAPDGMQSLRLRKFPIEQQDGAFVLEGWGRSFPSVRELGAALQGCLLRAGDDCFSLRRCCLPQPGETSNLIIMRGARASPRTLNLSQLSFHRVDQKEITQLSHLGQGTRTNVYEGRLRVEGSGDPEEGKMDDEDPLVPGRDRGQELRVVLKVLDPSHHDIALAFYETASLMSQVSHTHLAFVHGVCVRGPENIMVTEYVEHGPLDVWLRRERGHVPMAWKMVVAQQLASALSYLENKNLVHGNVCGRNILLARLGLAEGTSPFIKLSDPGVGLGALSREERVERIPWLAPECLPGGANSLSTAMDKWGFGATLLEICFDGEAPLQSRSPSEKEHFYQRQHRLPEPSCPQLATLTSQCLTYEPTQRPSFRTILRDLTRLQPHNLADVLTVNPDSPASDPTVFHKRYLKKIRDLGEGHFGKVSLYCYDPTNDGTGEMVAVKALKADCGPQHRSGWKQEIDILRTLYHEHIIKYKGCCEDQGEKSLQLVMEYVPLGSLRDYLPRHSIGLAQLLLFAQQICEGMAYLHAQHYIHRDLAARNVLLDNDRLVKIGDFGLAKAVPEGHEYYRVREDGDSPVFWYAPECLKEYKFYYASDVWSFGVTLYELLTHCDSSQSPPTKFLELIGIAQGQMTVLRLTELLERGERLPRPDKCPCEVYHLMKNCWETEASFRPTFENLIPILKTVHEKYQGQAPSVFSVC
Cyclin-dependent kinase 1, sequence (P06493 whole entry): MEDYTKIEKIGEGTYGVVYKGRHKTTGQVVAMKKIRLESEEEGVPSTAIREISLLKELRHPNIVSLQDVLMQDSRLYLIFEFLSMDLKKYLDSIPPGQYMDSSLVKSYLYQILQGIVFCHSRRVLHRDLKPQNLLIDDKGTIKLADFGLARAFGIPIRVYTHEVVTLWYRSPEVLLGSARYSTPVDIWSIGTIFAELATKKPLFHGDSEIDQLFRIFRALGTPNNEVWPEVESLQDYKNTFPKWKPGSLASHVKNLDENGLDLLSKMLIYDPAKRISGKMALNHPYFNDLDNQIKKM

Cc1cc([C@@H](C)Nc2ccccc2C(=O)O)c2nc(N3CCOCC3)cc(=O)n2c1 [AZD-6482]
inactive: Actin-related protein 2 > 30 µM | [1] > 30 µM | [2] > 30 µM | [3] > 30 µM | [4] > 30 µM | Ephrin type-B receptor 6 > 30 µM | [5] > 30 µM | [6] > 30 µM | [7] > 30 µM | [8] > 30 µM

CN1CCC(CNc2ccc3ncc(-c4cccc(OC(F)(F)F)c4)n3n2)CC1 [SGI-1776]
inactive: Actin-related protein 2 > 30 µM | [1] > 30 µM | [2] > 30 µM | [3] > 30 µM | [4] > 30 µM | Ephrin type-B receptor 6 > 30 µM | [5] > 30 µM | [6] > 30 µM | [7] > 30 µM | [8] > 30 µM

CC(C)Nc1cc(-c2c[nH]c(C(=O)N[C@H](CO)c3cccc(Cl)c3)c2)c(Cl)cn1 [ULIXERTINIB]
inactive: Actin-related protein 2 > 30 µM | [1] > 30 µM | [2] > 30 µM | [3] > 30 µM | [4] > 30 µM | Ephrin type-B receptor 6 > 30 µM | [5] > 30 µM | [6] > 30 µM | [7] > 30 µM | [8] > 30 µM

O=c1sn(-c2cccc3ccccc23)c(=O)n1Cc1ccccc1 [TIDEGLUSIB]
inactive: Actin-related protein 2 > 30 µM | [1] > 30 µM | [2] > 30 µM | [3] > 30 µM | [4] > 30 µM | Ephrin type-B receptor 6 > 30 µM | [5] > 30 µM | [6] > 30 µM | [7] > 30 µM | [8] > 30 µM

CNC(=O)c1cc(Oc2ccc(NC(=O)Nc3ccc(Cl)c(C(F)(F)F)c3)c(F)c2)ccn1 [REGORAFENIB]
inactive: Actin-related protein 2 > 30 µM | [1] > 30 µM | [2] > 30 µM | [3] > 30 µM | [4] > 30 µM | Ephrin type-B receptor 6 > 30 µM | [5] > 30 µM | [6] > 30 µM | [7] > 30 µM | [8] > 30 µM

Cc1ccc(-n2nc(C(C)(C)C)cc2NC(=O)NCc2cc(F)ccc2Oc2ccc3c(cnn3CCO)c2)cc1 [PEXMETINIB]
inactive: Actin-related protein 2 > 30 µM | [1] > 30 µM | [2] > 30 µM | [3] > 30 µM | [4] > 30 µM | Ephrin type-B receptor 6 > 30 µM | [5] > 30 µM | [6] > 30 µM | [7] > 30 µM | [8] > 30 µM

CCN1CCN(Cc2ccc(-c3cc4c(N[C@H](C)c5ccccc5)ncnc4[nH]3)cc2)CC1 [AEE-788]
inactive: Actin-related protein 2 > 30 µM | [1] > 30 µM | [2] > 30 µM | [3] > 30 µM | [4] > 30 µM | Ephrin type-B receptor 6 > 30 µM | [5] > 30 µM | [6] > 30 µM | [7] > 30 µM | [8] > 30 µM
